Data as given in ChEMBL document CHEMBL5154827, “Discovery of S-217622, a Noncovalent Oral SARS-CoV-2 3CL Protease Inhibitor Clinical Candidate for Treating COVID-19” (J Med Chem, 2022).

Columns and labels:
[1] = Elimination half life in Sprague-Dawley rat at 0.5 micromol/mL/kg, iv measured for 3 to 360 mins by LC-MS/MS analysis; type: ADME, organism-based; conditions: in vivo, time 3-360 min, dose 0.5 µmol/kg, read-out: LambdaZ (converted)
[2] = Antiviral activity against HCoV-OC43 infected in MRC5 cells assessed as inhibition of viral cytopathic effect measured after 42 hrs by real-time PCR method; type: functional, cell-based, Human coronavirus OC43; conditions: Betacoronavirus 1, OC43, MRC5, 42 h
[3] = system: NIH3T3; experiment: Phototoxicity in BALB/c mouse 3T3 fibroblast incubated for 1 hr by measuring neutral-red extraction from cells; type: toxicity, cell-based; conditions: nih3t3, 1 h
[4] = target: T1, Chymotrypsin (Homo sapiens, UniProt Q99895+P17538+P40313+Q6GPI1); experiment: Inhibition of human pancreas chymotrypsin at 100 uM using Suc-Ala-Ala-Pro-Phe-AMC as substrate preincubated for 15 mins incubated followed by addition of substrate measured after 60 mins by measuring amount of AMC formed by spectrofluorimetric method; type: protein assay; conditions: time 75.0 min
[5] = target: T1, Chymotrypsin; experiment: Inhibition of human pancreas chymotrypsin using Suc-Ala-Ala-Pro-Phe-AMC as substrate preincubated for 15 mins incubated followed by addition of substrate measured after 60 mins by measuring amount of AMC formed by spectrofluorimetric method; type: protein assay
[6] = target: Human immunodeficiency virus type 1 protease (Human immunodeficiency virus 1) (UniProt Q72874); experiment: Inhibition of HIV-1 protease at 100 uM

**Q.** Which half-life [1] does the source give for `CNC(=O)Cn1c(=O)[nH]/c(=N\c2ccc(OC(F)F)cc2C)n(Cc2cc(F)c(F)c(F)c2)c1=O` here?
**A.** 126 min

**Q.** For `Cn1cnc(Cn2c(=O)[nH]/c(=N\c3cc4cn(C)nc4cc3Cl)n(Cc3cc(F)c(F)cc3F)c2=O)n1`, which EC50 [2] is on record?
**A.** 74 nM

**Q.** And the Activity [3]?
**A.** Non-Toxic

**Q.** What about the inhibition [4] of the same molecule?
**A.** < 50%

**Q.** What about the IC50 [5] of the same molecule?
**A.** > 100 µM

**Q.** And the inhibition [6]?
**A.** < 50%

**Q.** For `CNC(=O)Cn1c(=O)[nH]/c(=N\c2cc3cn(C)nc3cc2Cl)n(Cc2cc(F)c(F)c(F)c2)c1=O`, which half-life [1] is on record?
**A.** 78 min
